# Patent US5096919A, “Pyrrolylphenyl-substituted hydroxamic acid derivatives” (Ciba-Geigy Corporation, priority 1989, dated 1992)
# Columns and labels:
# [1] = molecular target: T1, 5-lipoxygenase (Cavia porcellus, UniProt A0A286X958); assay: Inhibition of 5-HETE and LTB4 synthesis in A-23187-stimulated guinea pig polymorphonuclear leukocytes; type: cell-based; details: also printed as 7×10^-7 M, read-out: IC50 for inhibition of the formation of 5-HETE and leukotriene B4 (LTB4)
# T1 construct: in A-23187-stimulated guinea pig polymorphonuclear leukocytes; endogenous in cells; host or cells: guinea pig polymorphonuclear leukocytes
# T1 sequence (A0A286X958 1-674): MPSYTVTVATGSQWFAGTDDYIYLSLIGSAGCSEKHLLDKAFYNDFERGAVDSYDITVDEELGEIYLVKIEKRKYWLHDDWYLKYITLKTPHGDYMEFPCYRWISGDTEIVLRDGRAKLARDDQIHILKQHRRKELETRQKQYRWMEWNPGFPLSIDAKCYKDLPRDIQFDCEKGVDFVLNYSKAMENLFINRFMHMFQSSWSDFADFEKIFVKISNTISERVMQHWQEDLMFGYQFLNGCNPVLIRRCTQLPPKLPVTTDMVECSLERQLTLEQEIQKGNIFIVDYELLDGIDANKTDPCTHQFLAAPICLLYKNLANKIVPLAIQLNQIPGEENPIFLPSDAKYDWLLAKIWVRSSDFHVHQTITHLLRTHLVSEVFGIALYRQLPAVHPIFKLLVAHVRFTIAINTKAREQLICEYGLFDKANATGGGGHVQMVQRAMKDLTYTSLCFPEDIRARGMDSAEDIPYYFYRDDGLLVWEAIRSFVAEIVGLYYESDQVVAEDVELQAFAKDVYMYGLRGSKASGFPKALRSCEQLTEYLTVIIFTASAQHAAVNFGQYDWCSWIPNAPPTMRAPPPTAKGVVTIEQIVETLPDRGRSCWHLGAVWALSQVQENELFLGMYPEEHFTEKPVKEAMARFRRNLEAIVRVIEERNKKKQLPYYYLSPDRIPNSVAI
# Method: 5-Lipoxygenase inhibition is determined e.g. by measuring the percent inhibition of the synthesis of 5-HETE [(5S)-5-hydroxy-6,8,11,14-eicosa-tetraenoic acid] and leukotriene B4 (LTB4, 5,12-dihydroxy-6,8,10,14-eicosatetraenoic acid) in A-23187-stimulated guinea pig polymorphonuclear leukocytes, essentially according to radiometric thin-layer chromatographic assays described by Walker and Dawson (J. Pharm. Pharmacol. 31: 778, 1979) and Jakschik and Lee (Nature 287: 51, 1980) used to measure the formation of 5-HETE and LTB4 -like products from ^14 C-arachidonic acid. IC50 values are determined graphically as the concentration of test compound at which the synthesis of 5-HETE and LTB4 -like products is reduced to 50% of their respective control values.
# (§1) Illustrative of the invention, the compound of example 1, (E)-3-[4-(2,5-dimethyl-1H-pyrrol-1-yl)-phenyl]-N-hydroxy-N-methyl-2-propenamide, inhibits the formation of 5-HETE [(5S)-5-hydroxy-6,8,11,14-eicosa-tetraenoic acid] and leukotriene B4 (LTB4, 5,12-dihydroxy-6,8,10,14-eicosatetraenoic acid) in A-23187-stimulated guinea pig polymorphonuclear leukocytes, e.g. at an IC50 of about 0.7 micromolar (7×10^-7 M).
# [2] = tested on: 5-lipoxygenase; assay: Ex vivo inhibition of A-23187-stimulated LTB4 formation in whole blood after oral administration; details: dose of about 1 mg/kg p.o. to the dog
# Method: Furthermore, the inhibition of 5-lipoxygenase is determined after oral or i.v. administration to rats or dogs by measuring ex vivo in whole blood the decrease of A-23187-stimulated LTB4 formation as compared to non-treated control animals.
# as §1
# [3] = tested on: rat pleurisy model of inflammation; assay: Carrageenin-induced pleurisy model of inflammation; type: in vivo; details: 10 mg/kg p.o. at -1, 6, 24 and 45 hours relative to carrageenin injection, 48 hours after injection
smiles,measurement,setting,value
"Cc1ccc(C)n1-c1ccc(/C=C/C(=O)N(C)O)cc1 [Example 1, (E)-3-[4-(2,5-dimethyl-1H-pyrrol-1-yl)-phenyl]-N-hydroxy-N-methyl-2-propenamide]",IC50,[1],~700 nM
same,inhibition of LTB4 formation as determined ex vivo,[2],50%
same,cell count of leukocytes,[3],lowers the cell count of leukocytes
same,inhibition of exudate volume,[3],causes inhibition of exudate volume
